“Also recorded” adds a separate entry of the source.
What was measured:
[1] = test system: mouse model with ear AD-like symptoms induced by calcipotriol (MC903); experiment: Mouse model with ear AD-like symptoms induced by calcipotriol (MC903), second batch of experiments (Embodiment 32); assay type: in vivo, BALB/c mouse; details: MC903 5 nmol/mouse every day, 9 days; for therapeutic effects on AD-like symptoms in the ear of mice (ear inflammation, tissue HE staining, parameters of multiple experiments): screening over both batches; for reducing ear thicknesses of the mice / reducing the total serum IgE levels of the mice: vs model control group (MC903+EtOH), Mann-Whitney test
Procedure: (§1) A mouse model with ear AD-like symptoms induced by calcipotriol (MC903) was used to investigate these compounds in terms of the treatment activity for AD.
(§2) Referring to the Patent with a publication number of CN 110368386 A, a mouse model induced by MC903 (Calcipotriene) was prepared, wherein both ears of the BALB/c mouse model were applied with MC903, MC903+indole-3-aldehyde (IAId), or MC903+the compound prepared from the embodiments for 11 consecutive days, respectively, and total serum IgE levels, ear thicknesses, and weight loss in relative to the weight at the beginning of the experiment were tested at the end of the experiment.
(§3) The data shown in the results were average values ±SD of five independently repeated trials. Significance analysis was performed using Mann-Whitney test on the differences of corresponding parameters of the mice with the treatment group (MC903+ethanol (EtOH)), which was only administrated with MC903, wherein * indicated P<0.05, ** indicated P<0.01; *** indicated P<0.001.
Therefore, in the second batch of drug tests, the dosage of MC903 was decreased to 5 nmol/mouse every day, and the test period was reduced to 9 days.
(§4) EtOH group was a Blank control group, which was only administrated with ethanol. MC903+ EtOH group was a model control group, which was administrated with Calcipotriene and ethanol. The remaining groups were the groups which were administered with MC903 to construct the model, and then administered with different drugs. Indole-3-aldehyde (IAId) group was the group administered with IAId. Indole-3-methanol (I3C) group was the group administered with I3C. The other compound groups were the groups administered with corresponding compounds.

[2] = test system: mouse model with ear AD-like symptoms induced by calcipotriol (MC903); experiment: Optimum effective concentration in treatment of AD-like symptoms, MC903 mouse model (Embodiment 33); assay type: in vivo; details: vs group only administrated with MC903; for inhibitory effect on systematic inflammation (lower total serum IgE levels and improvement on AD-like symptoms in the mice ear): dosages per Table 11
Procedure: The above screened compounds having therapeutic effect on AD-like symptoms were selected to further determine the optimum effective concentration.
Referring to the animal model method in the Embodiment 32, dosages of drugs for each group were determined according to the table below, and the optimal effective concentration in treatment of AD-like symptoms was explored by comparing the differences in ear thicknesses, the total serum IgE levels and the weight loss of the mice with those of the treatment group only administrated with MC903.

[3] = test system: mouse model with ear AD-like symptoms induced by calcipotriol (MC903); experiment: Mouse model with ear AD-like symptoms induced by calcipotriol (MC903), first batch of experiments (Embodiment 32); assay type: in vivo, BALB/c mouse; details: MC903 6.9 nmol/mouse every day; for therapeutic effects on AD-like symptoms in the ear of mice (combined with ear inflammation and tissue HE staining): 11 days; for reducing ear thicknesses of the mice / reducing the total serum IgE levels of the mice: both ears, 11 consecutive days, vs model control group (MC903+EtOH), Mann-Whitney test
Procedure: as §1, §2, §3
In this batch of experiments, the dosage of MC903, a drug for constructing the models, was 6.9 nmol/mouse every day, and the experimental results of Compounds 1, 2, 3, 6, 7, 19, 20, 28, 29, 30, 34, 37, 38, and 39 in this batch were shown in FIGS. 11 to 13.
as §4, with “then administrated” for “then administered”, “with IAId, indole-3-methanol” for “with IAId. Indole-3-methanol”

Row | SMILES | therapeutic effects on AD-like symptoms in the ear of mice (ear inflammation, tissue HE staining, parameters of multiple experiments) [1] | reducing ear thicknesses of the mice [1] | reducing the total serum IgE levels of the mice [1] | inhibitory effect on systematic inflammation (lower total serum IgE levels and improvement on AD-like symptoms in the mice ear) [2] | therapeutic effects on AD-like symptoms in the ear of mice (combined with ear inflammation and tissue HE staining) [3] | reducing ear thicknesses of the mice [3] | reducing the total serum IgE levels of the mice [3] | therapeutic effect on AD-like symptoms in the mouse ear ([2]; at different concentration)
1 | CCCCCCCCCCCC(=O)OCOC(=O)n1cc(C=O)c2ccccc21 [Compound 4, (dodecanoyloxy)methyl 3-formyl-1H-indole-1-carboxylate] | therapeutic effects | statistically significant difference | statistically significant difference; also recorded: excellent effects | good inhibitory effect; also recorded: excellent inhibitory effect |  |  |  | 
2 | CCCCCCCCCCCC(=O)OCOC(=O)n1cc(CO)c2ccccc21 [Compound 22, (dodecanoyloxy)methyl 3-(hydroxymethyl)-1H-indole-1-carboxylate] | therapeutic effects |  | statistically significant difference; also recorded: excellent effects | good inhibitory effect |  |  |  | 
3 | CC(=O)Oc1ccccc1C(=O)OCn1cc(C=O)c2ccccc21 [Compound 35, (3-formyl-1H-indol-1-yl)methyl 2-acetoxybenzoate] | therapeutic effects |  | statistically significant difference; also recorded: excellent effects | good inhibitory effect |  |  |  | 
4 | CCCCCCCC(=O)OCn1cc(C=O)c2ccccc21 [Compound 29, (3-formyl-1H-indol-1-yl)methyl octanoate] | therapeutic effects | statistically significant difference |  | good inhibitory effect | significant therapeutic effects | statistically significant difference; also recorded: excellent effects | statistically significant difference | 
5 | CCCCCCCC(=O)OCn1cc(CO)c2ccccc21 [Compound 38, (3-(hydroxymethyl)-1H-indol-1-yl)methyl octanoate] | therapeutic effects | statistically significant difference | statistically significant difference | good inhibitory effect; also recorded: excellent inhibitory effect | significant therapeutic effects |  | statistically significant difference; also recorded: excellent effects | 
6 | CCCCCCCCCC(=O)OCn1cc(C=O)c2ccccc21 [Compound 30, (3-formyl-1H-indol-1-yl)methyl decanoate] | therapeutic effects | statistically significant difference | statistically significant difference; also recorded: excellent effects | good inhibitory effect; also recorded: excellent inhibitory effect | significant therapeutic effects | statistically significant difference; also recorded: excellent effects | statistically significant difference; also recorded: excellent effects | 
7 | O=Cc1cn(C(=O)OCOC(=O)Cc2ccccc2Nc2c(Cl)cccc2Cl)c2ccccc12 [Compound 9, (2-(2-((2,6-dichlorophenyl)amino)phenyl)acetoxy)methyl 3-formyl-1H-indole-1-carboxylate] | therapeutic effects | statistically significant difference; also recorded: excellent effects | statistically significant difference; also recorded: excellent effects | good inhibitory effect |  |  |  | significant therapeutic effect
8 | O=Cc1c[nH]c2ccccc12 [IAId, indole-3-carboxaldehyde, reference compound] |  |  |  |  |  | significantly reduced | significantly reduced | 

From patent US12570605B2, “Indole compounds, and preparation methods, and uses thereof” (Shenzhen 01 Life Science and Technology Co., Ltd., priority 2021, dated 2026)
